Assay results reported in the NIST ThermoML archive (doi:10.1016/j.jct.2015.12.025).
“And” between values parts separate entries of the source, which are not always exact repeats. Equal values may be shown once. Numbers after ± are expanded uncertainties.

What was measured:
[1] = 102 kPa, Liquid, Vibrating tube method
[2] = refractive index (Na D-line) (dimensionless); settings: 102 kPa, Liquid, Standard Abbe refractometry
[3] = xn = mol fraction of the nth substance listed; settings: 102 kPa, Liquid, Vibrating tube method
[4] = refractive index (Na D-line) (dimensionless); xn = mol fraction of the nth substance listed; settings: 102 kPa, Liquid, Standard Abbe refractometry

Compound	mass density ([1]; 308.15 K)	mass density ([1]; 313.15 K)	mass density ([1]; 318.15 K)	mass density ([1]; 323.15 K)	refractive index ([2]; 308.15 K)	refractive index ([2]; 313.15 K)	refractive index ([2]; 318.15 K)	refractive index ([2]; 323.15 K)	mass density ([1]; 298.15 K)	refractive index ([2]; 298.15 K)	mass density ([3]; 308.15 K, x2 = 0)	mass density ([3]; 313.15 K, x2 = 0)	mass density ([3]; 318.15 K, x2 = 0)	mass density ([3]; 323.15 K, x2 = 0)	refractive index ([4]; 308.15 K, x2 = 0)	refractive index ([4]; 313.15 K, x2 = 0)	refractive index ([4]; 318.15 K, x2 = 0)	refractive index ([4]; 323.15 K, x2 = 0)	also measured
C[Si]1(CCC(F)(F)F)O[Si](C)(CCC(F)(F)F)O[Si](C)(CCC(F)(F)F)O1 (stereo not drawn)	1236.63 ± 1 kg/m3	1230.05 ± 1 kg/m3	1223.55 ± 1 kg/m3	1216.99 ± 1 kg/m3	1.36011 ± 0.00035	1.35808 ± 0.00035	1.35609 ± 0.00035 and 1.35608 ± 0.00035	1.35407 ± 0.00035	–	–	–	–	–	–	–	–	–	–	–
C[Si]1(CCC(F)(F)F)O[Si](C)(CCC(F)(F)F)O[Si](C)(CCC(F)(F)F)O1 (stereo not drawn) + CC(C)(C)c1ccccc1	–	–	–	–	–	–	–	–	–	–	–	–	–	–	–	–	–	–	mass density ([3]; 308.15 K, x1 = 1): 1236.63 ± 1 kg/m3; mass density ([3]; 313.15 K, x1 = 1): 1230.05 ± 1 kg/m3; mass density ([3]; 318.15 K, x1 = 1): 1223.55 ± 1 kg/m3; mass density ([3]; 323.15 K, x1 = 1): 1216.99 ± 1 kg/m3; refractive index ([4]; 308.15 K, x1 = 1): 1.36011 ± 0.00035; refractive index ([4]; 313.15 K, x1 = 1): 1.35808 ± 0.00035; refractive index ([4]; 318.15 K, x1 = 1): 1.35609 ± 0.00035; refractive index ([4]; 323.15 K, x1 = 1): 1.35407 ± 0.00035
CC(C)(C)c1ccccc1 [(1,1-dimethylethyl)benzene]	854.12 ± 1 kg/m3	849.98 ± 1 kg/m3	845.87 ± 1 kg/m3	841.72 ± 1 kg/m3	1.48509 ± 0.00035	1.48256 ± 0.00035	1.48007 ± 0.00035	1.47754 ± 0.00035	862.28 ± 1 kg/m3	1.49009 ± 0.00035	–	–	–	–	–	–	–	–	–
COc1ccccc1 [anisole]	980.04 ± 1 kg/m3	975.25 ± 1 kg/m3	970.52 ± 1 kg/m3	965.73 ± 1 kg/m3	1.50865 ± 0.00035	1.50604 ± 0.00035	1.50341 ± 0.00035	1.50073 ± 0.00035	989.32 ± 1 kg/m3	1.5146 ± 0.00035	–	–	–	–	–	–	–	–	–
COc1ccccc1 [anisole] + C[Si]1(CCC(F)(F)F)O[Si](C)(CCC(F)(F)F)O[Si](C)(CCC(F)(F)F)O1	–	–	–	–	–	–	–	–	–	–	980.04 ± 1 kg/m3	975.25 ± 1 kg/m3	970.52 ± 1 kg/m3	965.73 ± 1 kg/m3	1.50865 ± 0.00035	1.50604 ± 0.00035	1.50341 ± 0.00035	1.50073 ± 0.00035	–
CCc1ccccc1 [ethylbenzene]	853.71 ± 1 kg/m3	849.29 ± 1 kg/m3	844.7 ± 1 kg/m3	840.28 ± 1 kg/m3	1.4876 ± 0.00035	1.48491 ± 0.00035	1.48217 ± 0.00035	1.47944 ± 0.00035	862.58 ± 1 kg/m3	1.49301 ± 0.00035	–	–	–	–	–	–	–	–	refractive index ([2]; 303.15 K): 1.4903 ± 0.00035
CCc1ccccc1 [ethylbenzene] + C[Si]1(CCC(F)(F)F)O[Si](C)(CCC(F)(F)F)O[Si](C)(CCC(F)(F)F)O1	–	–	–	–	–	–	–	–	–	–	853.71 ± 1 kg/m3	849.29 ± 1 kg/m3	844.7 ± 1 kg/m3	840.28 ± 1 kg/m3	1.4876 ± 0.00035	1.48491 ± 0.00035	1.48217 ± 0.00035	1.47944 ± 0.00035	–
O=[N+]([O-])c1ccccc1 [nitrobenzene]	1188.17 ± 1 kg/m3	1183.21 ± 1 kg/m3	1178.24 ± 1 kg/m3	1173.26 ± 1 kg/m3	1.545 ± 0.00035	1.5425 ± 0.00035	1.54005 ± 0.00035	1.53757 ± 0.00035	1198.2 ± 1 kg/m3	1.54992 ± 0.00035	–	–	–	–	–	–	–	–	mass density ([1]; 303.15 K): 1193.25 ± 1 kg/m3; refractive index ([2]; 303.15 K): 1.54746 ± 0.00035
O=[N+]([O-])c1ccccc1 [nitrobenzene] + C[Si]1(CCC(F)(F)F)O[Si](C)(CCC(F)(F)F)O[Si](C)(CCC(F)(F)F)O1	–	–	–	–	–	–	–	–	–	–	1188.17 ± 1 kg/m3	1183.21 ± 1 kg/m3	1178.24 ± 1 kg/m3	1173.26 ± 1 kg/m3	1.545 ± 0.00035	1.5425 ± 0.00035	1.54005 ± 0.00035	1.53757 ± 0.00035	–
